Earlier results, collected in patent publication US20090092696A1, “Herbal combination omega oil aphrodisiac” (priority 2007, published 2009).

Assays:
[1] = system: corpus cavernosum; conditions: for erection when injected directly into the corpus cavernosum: hypodermic needle injection; for duration of erection after injection: appropriate dose, intracavernosal
[2] = system: impotent men; conditions: ingestion
[3] = system: impotentia erectionis; conditions: buccal administration of 100 I.U. three times a day for 14 days

SMILES	erection when injected directly into the corpus cavernosum [1]	other results
CCN(CC)CCOC(=O)C(Cc1cccc2ccccc12)CC1CCCO1 (mixture of isomers) [naftidrofuryl]	caused erection	–
COC(=O)[C@@H]1[C@H]2C[C@H]3c4[nH]c5ccccc5c4CCN3C[C@@H]2CC[C@@H]1O [Yohimbine]	–	subjective improvement in erectile ability ([2]; impotent men treated): 38%; treated patients reporting complete satisfaction [2]: 5%
CN(C)CCCN1c2ccccc2CCc2ccccc21 [imipramine]	caused erection	–
CC[C@H](C)[C@@H]1NC(=O)[C@H](Cc2ccc(O)cc2)NC(=O)[C@@H](N)CSSC[C@@H](C(=O)N2CCC[C@H]2C(=O)N[C@@H](CC(C)C)C(=O)NCC(N)=O)NC(=O)[C@H](CC(N)=O)NC(=O)[C@H](CCC(N)=O)NC1=O [oxytocin]	–	improvement of impotentia erectionis [3]: 12 of the 16
COc1ccc(Cc2nccc3cc(OC)c(OC)cc23)cc1OC [papaverine]	caused erection	duration of erection after injection [1]: unrelenting erection lasting for hours
CC(COc1ccccc1)N(CCCl)Cc1ccccc1 (stereo not drawn) [phenoxybenzamine]	caused erection	duration of erection after injection [1]: unrelenting erection lasting for hours
Cc1ccc(N(CC2=NCCN2)c2cccc(O)c2)cc1 [phentolamine]	caused erection	–
CC(=O)Oc1cc(C(C)C)c(OCCN(C)C)cc1C [thymoxamine]	caused erection	–
COc1ccc(CCN(C)CCCC(C#N)(c2ccc(OC)c(OC)c2)C(C)C)cc1OC (stereo not drawn) [verapamil]	caused erection	–
